{
  "source": "ChEMBL document CHEMBL5528023",
  "about": "“Discovery of a CB2 and 5-HT1A receptor dual agonist for the treatment of depression and anxiety” (Eur J Med Chem, 2024)",
  "key": {"[1]": {"experiment": "Toxicity in C57BL/6J mouse assessed as effect on body weight at 1 to 10 mg/kg, ip measured upto 10 days", "format": "organism-based", "conditions": "in vivo, 240 h, dose 1-10 mg/kg, time < 10 day"}, "Mus musculus [2]": {"system": "Mus musculus", "experiment": "Induction of spontaneous locomotor activity in C57BL/6 mouse at 1 mg/kg, ip measured at 1 hr", "format": "functional, organism-based"}, "Mus musculus [3]": {"system": "Mus musculus", "experiment": "Anxiolytic activity against stress-induced hyperthermia in ip dosed ICR mouse assessed as reduction in basal core rectal temperature measured for 60 mins", "format": "functional, organism-based", "conditions": "dose 3-10 mg/kg"}, "Mus musculus [4]": {"system": "Mus musculus", "experiment": "Antidepressant activity in C57BL/6J mouse at 1 mg/kg, ip administered for 14 days by tail suspension test", "format": "functional, organism-based", "conditions": "time 14.0 day"}, "Cannabinoid receptor 1 [5]": {"target": "T1, Cannabinoid receptor 1 (Homo sapiens, UniProt P21554)", "T1 sequence (P21554 whole entry)": "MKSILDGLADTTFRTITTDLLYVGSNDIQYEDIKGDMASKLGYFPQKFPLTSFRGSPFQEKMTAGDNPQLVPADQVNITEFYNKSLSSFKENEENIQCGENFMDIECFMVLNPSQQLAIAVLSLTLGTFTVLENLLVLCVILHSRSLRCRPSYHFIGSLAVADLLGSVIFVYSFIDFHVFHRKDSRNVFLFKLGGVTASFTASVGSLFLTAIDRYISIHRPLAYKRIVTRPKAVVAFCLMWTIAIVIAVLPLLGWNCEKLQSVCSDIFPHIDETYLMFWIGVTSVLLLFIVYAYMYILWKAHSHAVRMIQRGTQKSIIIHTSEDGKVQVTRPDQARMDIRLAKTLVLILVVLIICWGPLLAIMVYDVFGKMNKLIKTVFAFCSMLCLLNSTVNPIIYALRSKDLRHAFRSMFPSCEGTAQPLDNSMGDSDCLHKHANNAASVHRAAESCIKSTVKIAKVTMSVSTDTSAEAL", "experiment": "Antagonist activity at human CB1 receptor expressed in CHO cells assessed as inhibition of forskolin-stimulated cAMP formation by measuring maximum inhibition preincubated with compound for 10 mins followed by forskolin induction and measured after 30 mins by HTRF analysis relative to control", "format": "functional, cell-based", "conditions": "filed as antagonist, time 40.0 min"}, "Cannabinoid receptor 2 [6]": {"target": "T2, Cannabinoid receptor 2 (Homo sapiens, UniProt P34972)", "T2 sequence (P34972 whole entry)": "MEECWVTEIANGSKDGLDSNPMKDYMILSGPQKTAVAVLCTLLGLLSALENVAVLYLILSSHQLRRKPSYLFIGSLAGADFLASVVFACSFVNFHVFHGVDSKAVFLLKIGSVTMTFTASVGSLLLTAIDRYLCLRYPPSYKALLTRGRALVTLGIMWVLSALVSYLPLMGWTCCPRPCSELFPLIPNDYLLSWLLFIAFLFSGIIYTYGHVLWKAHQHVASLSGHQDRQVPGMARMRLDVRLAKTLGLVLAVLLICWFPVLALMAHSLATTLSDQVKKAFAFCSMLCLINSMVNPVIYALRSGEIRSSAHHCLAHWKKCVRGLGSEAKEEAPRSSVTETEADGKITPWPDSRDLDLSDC", "experiment": "Agonist activity at human CB2 receptor expressed in CHO cells assessed as forskolin-stimulated cAMP formation preincubated with compound for 10 mins followed by forskolin induction and measured after 30 mins by HTRF analysis relative to control", "format": "functional, cell-based", "conditions": "time 40.0 min"}, "[7]": {"experiment": "Cmax in ICR mouse brain at 25 mg/kg, po measured upto 8 hrs by LC-MS/MS analysis", "format": "ADME, organism-based"}, "Mus musculus [8]": {"system": "Mus musculus", "experiment": "Antidepressant activity in C57BL/6J mouse assessed as […] at 1 mg/kg, ip administered for 14 days by tail suspension test", "format": "functional, organism-based", "conditions": "time 14.0 day"}, "Mus musculus [9]": {"system": "Mus musculus", "experiment": "Anxiolytic activity against stress-induced hyperthermia in ip dosed ICR mouse assessed as reduction in delta temperature measured for 60 mins", "format": "functional, organism-based", "conditions": "dose 1-10 mg/kg"}, "[10]": {"experiment": "Cmax in ICR mouse at 25 mg/kg, po measured upto 8 hrs by LC-MS/MS analysis", "format": "ADME, organism-based", "conditions": "in vivo"}, "Mus musculus [11]": {"system": "Mus musculus", "experiment": "Antidepressant activity in C57BL/6J mouse assessed as reduction in immobility time at 1 mg/kg, ip administered for 12 days and measured after 15 mins by forced swim test", "format": "functional, organism-based", "conditions": "time 17295.0 min"}, "Mus musculus [12]": {"system": "Mus musculus", "experiment": "Antidepressant activity in C57BL/6J mouse assessed as reduction in immobility time at 1 mg/kg, ip administered for 12 days by forced swim test", "format": "functional, organism-based", "conditions": "time 12.0 day"}, "Mus musculus [13]": {"system": "Mus musculus", "experiment": "Induction of spontaneous locomotor activity in C57BL/6 mouse assessed as distance traveled at 1 to 10 mg/kg, ip administered once per day for 15 days and measured after 1 hr", "format": "functional, organism-based", "conditions": "dose 1-10 mg/kg, time 361.0 hrs"}, "Cannabinoid receptor 1 [14]": {"target": "T1, Cannabinoid receptor 1", "experiment": "Antagonist activity at human CB1 receptor expressed in CHO cells assessed as inhibition of forskolin-stimulated cAMP formation preincubated with compound for 10 mins followed by forskolin induction and measured after 30 mins by HTRF analysis", "format": "functional, cell-based"}, "Mus musculus [15]": {"system": "Mus musculus", "experiment": "Induction of spontaneous locomotor activity in C57BL/6 mouse at 3 mg/kg, ip measured at 15 mins", "format": "functional, organism-based"}, "[16]": {"experiment": "Half life in ICR mouse at 25 mg/kg, po measured upto 8 hrs by LC-MS/MS analysis", "format": "ADME, organism-based", "conditions": "in vivo"}, "[17]": {"experiment": "Tmax in ICR mouse at 25 mg/kg, po measured upto 8 hrs by LC-MS/MS analysis", "format": "ADME, organism-based", "conditions": "in vivo"}, "Mus musculus [18]": {"system": "Mus musculus", "experiment": "Antidepressant activity in C57BL/6J mouse assessed as reduction in immobility time at 3 to 10 mg/kg, ip administered for 12 days by forced swim test", "format": "functional, organism-based", "conditions": "dose 3-10 mg/kg, time 12.0 day"}, "Mus musculus [19]": {"system": "Mus musculus", "experiment": "Antidepressant activity in C57BL/6J mouse assessed as reduction in immobility time at 3 to 10 mg/kg, ip administered for 12 days and measured after 15 mins by forced swim test", "format": "functional, organism-based", "conditions": "dose 3-10 mg/kg, time 17295.0 min"}, "Mus musculus [20]": {"system": "Mus musculus", "experiment": "Anxiolytic activity against stress-induced hyperthermia in ICR mouse assessed as reduction in basal core rectal temperature at 1 to 10 mg/kg, ip measured for 60 mins", "format": "functional, organism-based", "conditions": "dose 1-10 mg/kg"}, "Cannabinoid receptor 2 [21]": {"target": "T2, Cannabinoid receptor 2", "experiment": "Agonist activity at human CB2 receptor expressed in CHO cells assessed as forskolin-stimulated cAMP formation preincubated with compound for 10 mins followed by forskolin induction and measured after 30 mins by HTRF analysis", "format": "functional, cell-based"}, "[22]": {"experiment": "AUClast in ICR mouse at 25 mg/kg, po measured upto 8 hrs by LC-MS/MS analysis", "format": "ADME, organism-based", "conditions": "in vivo"}, "Mus musculus [23]": {"system": "Mus musculus", "experiment": "Induction of spontaneous locomotor activity in C57BL/6 mouse assessed as distance traveled at 10 mg/kg, ip measured at 1 hr", "format": "functional, organism-based"}, "[24]": {"target": "T3, 5-hydroxytryptamine receptor 1A (Homo sapiens, UniProt P08908)", "T3 sequence (P08908 whole entry)": "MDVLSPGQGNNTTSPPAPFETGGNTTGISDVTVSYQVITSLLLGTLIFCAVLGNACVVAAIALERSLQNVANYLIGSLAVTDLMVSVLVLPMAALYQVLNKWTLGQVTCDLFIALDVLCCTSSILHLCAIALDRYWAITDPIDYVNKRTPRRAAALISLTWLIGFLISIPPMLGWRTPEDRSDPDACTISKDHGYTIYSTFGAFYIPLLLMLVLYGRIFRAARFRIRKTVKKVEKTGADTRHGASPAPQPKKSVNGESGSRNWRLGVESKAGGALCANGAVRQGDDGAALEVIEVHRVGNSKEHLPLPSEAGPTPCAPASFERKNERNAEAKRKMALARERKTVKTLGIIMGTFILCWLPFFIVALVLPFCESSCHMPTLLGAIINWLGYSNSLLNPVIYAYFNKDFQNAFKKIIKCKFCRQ", "experiment": "Agonist activity at human 5HT1A receptor expressed in HEK293 cells assessed as forskolin-stimulated cAMP formation preincubated with compound for 10 mins followed by forskolin induction and measured after 30 mins by HTRF analysis", "format": "functional, cell-based"}, "[25]": {"target": "T4, 5-hydroxytryptamine receptor 1A (Homo sapiens) (UniProt P08908)", "T4 sequence (whole entry)": "T3 sequence (P08908 whole entry)", "experiment": "Agonist activity at human 5HT1A receptor expressed in HEK293 cells assessed as forskolin-stimulated cAMP formation preincubated with compound for 10 mins followed by forskolin induction and measured after 30 mins by HTRF analysis relative to control", "format": "functional, cell-based", "conditions": "filed as agonist, time 40.0 min"}},
  "note": "The source made the active and inactive calls. No cut-off for these calls is given here.",
  "data": [
    {"smiles": "C=C(C)[C@@H]1CCC(C)=C[C@H]1c1c(O)cc(C2(CCCC)CC2)c(C(N)=O)c1O", "values": [
      {"measurement": "Activity", "setting": "[1]", "value": "Non-Toxic"},
      {"measurement": "Activity", "setting": "Mus musculus [2]", "value": "Active"},
      {"measurement": "Activity", "setting": "Mus musculus [3]", "value": "Dose-Dependent Effect"},
      {"measurement": "Activity", "setting": "Mus musculus [4]", "value": "Active"},
      {"measurement": "Imax", "setting": "Cannabinoid receptor 1 [5]", "value": 93.8, "unit": "%"},
      {"measurement": "Emax", "setting": "Cannabinoid receptor 2 [6]", "value": 34.9, "unit": "%"},
      {"measurement": "Cmax", "setting": "[7]", "value": 217, "unit": "ng/g"},
      {"measurement": "Activity", "setting": "Mus musculus [8]", "value": "inactive"},
      {"measurement": "Activity", "setting": "Mus musculus [9]", "value": "Dose-Dependent Effect"},
      {"measurement": "Cmax", "setting": "[10]", "value": 211, "unit": "ng/mL"},
      {"measurement": "Activity", "setting": "Mus musculus [11]", "value": "Active"},
      {"measurement": "Activity", "setting": "Mus musculus [12]", "value": "Active"},
      {"measurement": "Activity", "setting": "Mus musculus [13]", "value": "Active"},
      {"measurement": "IC50", "setting": "Cannabinoid receptor 1 [14]", "value": 3.2, "unit": "µM"},
      {"measurement": "Activity", "setting": "Mus musculus [15]", "value": "Active"},
      {"measurement": "half-life", "setting": "[16]", "value": 150, "unit": "min"},
      {"measurement": "Tmax", "setting": "[17]", "value": 1.3, "unit": "h"},
      {"measurement": "Activity", "setting": "Mus musculus [18]", "value": "Active"},
      {"measurement": "Activity", "setting": "Mus musculus [19]", "value": "Active"},
      {"measurement": "Activity", "setting": "Mus musculus [20]", "value": "Active"},
      {"measurement": "EC50", "setting": "Cannabinoid receptor 2 [21]", "value": 480, "unit": "nM"},
      {"measurement": "AUC(0-t) at 8 h", "setting": "[22]", "value": 545, "unit": "ng·h/mL"},
      {"measurement": "Activity", "setting": "Mus musculus [23]", "value": "inactive"},
      {"measurement": "EC50", "setting": "[24]", "value": 2700, "unit": "nM"},
      {"measurement": "Emax", "setting": "[25]", "value": 101, "unit": "%"}
    ]}
  ]
}
